# Patent publication US20200087625A1, “METHODS FOR ISOLATING, EXPANDING AND ADMINISTERING CANCER SPECIFIC CD8+ T CELLS” (priority 2017, published 2020)
# Tests used:
# CD8+ T cells = test: TCR repertoire analysis of CD8+ T cells from TILs and spleens; format: in vivo, BALB/c mice
# 4T1-GLF cells = test: In vivo imaging (IVIS) of lung tumor signals, 4T1-GLF; set-up: species or system BALB/c mice; details: 200 μg i.p. day -1; early phase 3 h and 6 h, late phase days 7, 10, 14
# Procedure: (§1) FIGS. 25A-25F. Innate immune cells, NK cells and dendritic cells are activated following 1V270 therapy and contribute to anti-metastatic effects (A-C) Systemic administration of 1V270 activates dendritic cells and increases CD8^+ cell recruitment in the lung draini lymph node. (A) BALB/c mice (n=S/group) were treated with 1V270 on day −1 and then tumor cells were i.v. administered on day 0. Seven days later, mediastinal lymph node (mLN) cells were stained for dendritic cells (DC; CD45^+CD11c^+MHC classll^+). (B) DCs were further stained for CD80 and CD86. […] Tumor signals were quantified by IVIS. […] On the next day, lung cells were stained for NK markers (CD45^+[…] NKp46^+CD49^+) and analyzed by flow cytometry. […] Tumor signals were analyzed as described above. […]
# GFP and luciferase (GLF)-expressing tumor cells (2×10^4 of 4T1-GLF, 5×10^5 of B16-GLF, and […] of LLC-GLF) were i.v. injected into BALB/c mice for 4T1 models, BG-albino or wild-type C57BU6 for B16 melanoma or LLC models). […] Image data were acquired by 1 Ss exposure using the IVIS Spectrum and analyzed using the Living Image software, version 4.5.2 (Perkin Elmer, Waltham, Mass.). We confirmed that the tumor signals in the lungs at day 10 correlated with the number of lung metastasis determined on day 21, as well as the overall survival (Supplemental figures 10). […]
# NK cells and MDSC = test: Innate immune cell recruitment to the lungs (flow cytometry); format: in vivo, BALB/c mice; details: 1V270 day -1; vs vehicle
# Procedure: as §1, with “CD86. (C) The mLN cells were also stained for central memory CD8^+ T cells (CD3+CD8^+CD44^+CD62L^+), effector memory CD8^+ T cells (CD3+CD8^+CD44^+CD62L^+), and naive CD8^+ T cells (CD3+CD8^+CD44^−CD62L^−). Each dot indicates an individual mouse and horizontal and vertical bars indicate means±SEM.” for “CD86.”
# FIGS. 33A-33C. […] Next day, single cell suspensions derived from the lungs were stained for (A) NK cells (CD45^+CD3^−NKp46^+CD49^+), (B) M-MDSCs (CD45^+CD11b^+Ly6G^−Ly6^high) and (C) PMN-MDSCs (CD45^+CD11b^+Ly6G^+) were analyzed by flow cytometric assay. […]
# primary tumor = details: cited from earlier work
compound,measurement,setting,value
CCCCCCCCC=CCCCCCCCC(=O)OCC(COP(=O)(O)OCCNC(=O)c1ccc(Cn2c(=O)[nH]c3c(N)nc(OCCOC)nc32)cc1)OC(=O)CCCCCCCC=CCCCCCCCC (stereo not drawn) [1V270],BUB overlap index between TILs and splenocytes,CD8+ T cells; 1V270-treated tumor-exposed vs non-tumor exposed mice,significantly higher BUB indices
same,number of shared clones in TILs,CD8+ T cells; 1V270 treated tumor-exposed group vs no-tumor exposed group,eight-fold higher
same,TCRα clonotypes shared by 3 or more individuals,CD8+ T cells; non-tumor group,5
same,clonality of CD8+ T cells,CD8+ T cells; secondarily challenged tumors,increased clonality of CD8^+ T cells
same,TCRα clonotypes shared by 3 or more individuals,CD8+ T cells; tumor-exposed group,31
same,TCRβ clonotypes shared by 3 or more individuals,CD8+ T cells; tumor-exposed group,11
same,frequency of shared clones,CD8+ T cells; tumor-exposed vs non-tumor exposed mice,significantly higher in tumor-exposed mice than in non-tumor exposed mice
same,lung tumor signals (IVIS),4T1-GLF cells,significantly suppressed the tumor signals
same,population of NK cells recruited to the lungs,NK cells and MDSC,Significantly increased populations
same,population of monocytic-MDSC recruited to the lungs,NK cells and MDSC,Significantly increased populations
same,primary tumor growth,primary tumor; intratumoral administration,inhibits primary tumor growth
same,systemic cytokine induction,primary tumor; local (intratumoral) treatment,without causing systemic cytokine induction
